From PubChem BioAssay (NCI) come the findings set out here.

Among the test systems are SF-268 CNS; 786-0 renal; LOX IMVI melanoma; DMS 114 small cell lung; K-562 leukemia; IGROV1 ovarian; NCI-H460 lung; HS 578T breast; DU-145 prostate.
Common to all, as to experiment: inhibition of tumour cell growth, NCI panel, 48 h

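Protocol summary: plate cells (96-well), add compound at 5 concentrations, incubate 48 h, interpolate endpoints linearly. The concentration for 50% growth inhibition is given as GI50. Definition used: TGI = concentration required for complete inhibition of growth.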

In the case of `Cc1cccc(C(C)C)c1NC(=O)C(=O)C(C(=O)c1ccccc1F)C1OC(=O)c2ccccc21` (stereo not given), the TGI in the experiment on SF-268 CNS was 92.9 µM; in the experiment with 786-0 renal it was 36.6 µM; in the experiment with LOX IMVI melanoma, 32.7 µM; with DMS 114 small cell lung, 36.1 µM; in the experiment with K-562 leukemia it was more than 100 µM; in the experiment on IGROV1 ovarian, 77.9 µM. For the same compound, the TGI in the experiment on NCI-H460 lung amounted to 83.9 µM.

`COc1ccc2c(Oc3ccc(NC(=O)c4c(C)n(CC(C)(C)O)n(-c5ccccc5)c4=O)nc3)ccnc2c1`: the GI50 in the experiment on SF-268 CNS was 16.8 µM; in the experiment with 786-0 renal, 22.3 µM; with LOX IMVI melanoma it was 10.9 µM; with HS 578T breast, 21.1 µM; in the experiment with K-562 leukemia, 2770 nM; in the experiment on DU-145 prostate it was 12.1 µM. For the same compound, the results for the GI50 in the experiment on IGROV1 ovarian and in the experiment with NCI-H460 lung were 12.3 µM and 13.6 µM, respectively. The TGI was more than 100 µM in the experiment with SF-268 CNS; more than 100 µM in the experiment with 786-0 renal; more than 100 µM in the experiment on LOX IMVI melanoma; more than 100 µM in the experiment with HS 578T breast; 20 µM with K-562 leukemia; more than 100 µM with DU-145 prostate. Besides, the TGI in the experiment on IGROV1 ovarian and with NCI-H460 lung was more than 100 µM throughout.

For `NC(=S)N/N=C/c1cc(-c2cccc(N)c2)ccn1`, the GI50 is 1.02 µM with SF-268 CNS; 1.29 µM in the experiment with 786-0 renal; 2.09 µM with LOX IMVI melanoma; 0.585 µM in the experiment on HS 578T breast; 541 nM in the experiment on K-562 leukemia; 1.25 µM in the experiment with DU-145 prostate. For the same compound, the GI50 was 3.05 µM in the experiment with IGROV1 ovarian and 1.07 µM in the experiment on NCI-H460 lung. In addition, the TGI in the experiment with SF-268 CNS is more than 70.7 µM; in the experiment on 786-0 renal it was 6.34 µM; with LOX IMVI melanoma it was 34.6 µM; with HS 578T breast it was more than 57.4 µM; in the experiment on K-562 leukemia, more than 100 µM; in the experiment with DU-145 prostate, 12 µM. Also, the TGI in the experiment with IGROV1 ovarian was more than 24.5 µM; in the experiment with NCI-H460 lung it was 7.27 µM.

On to `COC(=O)CCC1=C(CC(=O)OC)C(C)=N/C1=C\c1[nH]c(-c2ccc[nH]2)cc1OC`, for which the GI50 is 5.95 µM in the experiment with SF-268 CNS; 2.73 µM in the experiment with 786-0 renal; 0.788 µM with LOX IMVI melanoma; 4.09 µM in the experiment on HS 578T breast; 2700 nM in the experiment with K-562 leukemia; 5.87 µM in the experiment on DU-145 prostate. For the same compound, the GI50 with IGROV1 ovarian was 4.21 µM; in the experiment with NCI-H460 lung, 3.72 µM. The TGI in the experiment with SF-268 CNS was 21.3 µM; in the experiment with 786-0 renal, 10.2 µM; with LOX IMVI melanoma, 3.11 µM; in the experiment with HS 578T breast, 18.7 µM; in the experiment with K-562 leukemia, 12.5 µM; with DU-145 prostate, 22.6 µM. Besides, the TGI came to 28.6 µM with IGROV1 ovarian and 13.7 µM in the experiment on NCI-H460 lung.

For the compound `O=C(OCC(OC(=O)c1ccccc1)C(OC(=O)c1ccccc1)C(OC(=O)c1ccccc1)c1cnn(-c2ccccc2)n1)c1ccccc1` (stereo not given), the TGI with SF-268 CNS, in the experiment on 786-0 renal, in the experiment on LOX IMVI melanoma, in the experiment on HS 578T breast, in the experiment with K-562 leukemia and with DU-145 prostate was more than 100 µM each time. Further, the TGI with IGROV1 ovarian and in the experiment with NCI-H460 lung was more than 100 µM each time.

Consider `Cc1nn(C(=O)c2ccc(Cl)cc2)c2c1C(c1ccc(O)cc1)SC(N)=N2` (stereo not given), for which the TGI with SF-268 CNS, in the experiment with 786-0 renal, with LOX IMVI melanoma, in the experiment on HS 578T breast, in the experiment on K-562 leukemia and in the experiment on DU-145 prostate was more than 10 µM each time. Besides, the TGI in the experiment on IGROV1 ovarian and in the experiment with NCI-H460 lung was more than 10 µM in each case.

Take `COC(=O)c1cc(/C=C/c2ccc(S(N)(=O)=O)cc2)ccc1O`: the GI50 was 37.3 µM in the experiment with SF-268 CNS; 7.35 µM with 786-0 renal; 30 µM in the experiment on LOX IMVI melanoma; 29.7 µM with HS 578T breast; more than 100000 nM in the experiment with K-562 leukemia; 15.9 µM in the experiment on DU-145 prostate. The GI50 with IGROV1 ovarian is 25.7 µM; in the experiment on NCI-H460 lung, 27.5 µM. Also, the TGI in the experiment with SF-268 CNS was more than 100 µM; with 786-0 renal, more than 100 µM; in the experiment on LOX IMVI melanoma, more than 100 µM; with HS 578T breast it was 72.1 µM; in the experiment with K-562 leukemia, more than 100 µM; with DU-145 prostate, more than 100 µM. The TGI is more than 100 µM with IGROV1 ovarian and 66.4 µM in the experiment with NCI-H460 lung.

Take `Nc1ccccc1SC1CC(=O)N(c2ccc(Cl)c(Cl)c2)C1=O` (stereo not given): the GI50 is 29.7 µM with SF-268 CNS; 27.3 µM in the experiment on 786-0 renal; 31.7 µM in the experiment on LOX IMVI melanoma; 12.5 µM in the experiment on HS 578T breast; 15000 nM with K-562 leukemia; 27.5 µM in the experiment on DU-145 prostate. For the same compound, the GI50 is 31 µM in the experiment on IGROV1 ovarian and 32 µM in the experiment with NCI-H460 lung. For the same compound, the TGI in the experiment on SF-268 CNS was more than 100 µM; in the experiment with 786-0 renal, 90.3 µM; with LOX IMVI melanoma, more than 100 µM; in the experiment with HS 578T breast, 49.5 µM; with K-562 leukemia it was more than 100 µM; in the experiment with DU-145 prostate, more than 100 µM. In addition, the TGI with IGROV1 ovarian and in the experiment with NCI-H460 lung was more than 100 µM throughout.

Consider `O=C1C(Cl)=C(Nc2ccccc2O)C(=O)N1Cc1ccccc1`, for which the GI50 in the experiment with SF-268 CNS is 20.8 µM; with 786-0 renal, 16.8 µM; with LOX IMVI melanoma, 16.5 µM; in the experiment with HS 578T breast it was 17.3 µM; in the experiment with K-562 leukemia, 15500 nM; in the experiment on DU-145 prostate it was 18.2 µM. Besides, the GI50 is 29.7 µM in the experiment on IGROV1 ovarian and 21 µM in the experiment with NCI-H460 lung. Besides, the TGI came to 52.2 µM in the experiment on SF-268 CNS; 30.4 µM in the experiment on 786-0 renal; 30.1 µM in the experiment on LOX IMVI melanoma; 38.1 µM in the experiment on HS 578T breast; 33.6 µM with K-562 leukemia; 32.1 µM in the experiment on DU-145 prostate. Further, the values for the TGI in the experiment with IGROV1 ovarian and in the experiment with NCI-H460 lung were more than 100 µM and 42.5 µM, respectively.

For `COc1ccc(/C=C(/c2ccccc2)[N+](=O)[O-])cc1`, the GI50 in the experiment on SF-268 CNS was 1.82 µM; with 786-0 renal, 1.58 µM; with LOX IMVI melanoma, 1.47 µM; with HS 578T breast, 2.4 µM; in the experiment with K-562 leukemia it was 393 nM; with DU-145 prostate, 1.65 µM. For the same compound, the GI50 in the experiment with IGROV1 ovarian is 1.27 µM; in the experiment with NCI-H460 lung, 2.04 µM. The TGI with SF-268 CNS is 3.77 µM; with 786-0 renal, 2.96 µM; in the experiment on LOX IMVI melanoma, 2.89 µM; in the experiment on HS 578T breast, 7.7 µM; in the experiment on K-562 leukemia it was more than 100 µM; in the experiment on DU-145 prostate, 3.05 µM. The results for the TGI in the experiment with IGROV1 ovarian and in the experiment on NCI-H460 lung were 2.67 µM and 4.16 µM, respectively.
